Results published in US9476017B2, “Compositions and methods for cleaning, disinfecting, and sanitizing that are effluent neutral” (Diversey, Inc, priority 2012, dated 2016).
Read-outs that look alike come from different tables or passages of the source.

Key:
[1] = Experimental: Formulation B was combined with three sanitizing additives hydrogen peroxide (i.e., “peroxide”), peracetic acid (PAA) and chlorine dioxide. Testing was conducted at 80° C. to simulate CIP tank conditions. Ferment soil was added to the tests to further simulate real conditions.
[2] = tested on: Lactobacillus brevis; test: Efficiency against Lactobacillus brevis, EN 1276; format: cell-based
Experimental: (§1) Testing was done according to test protocols EN 1276 and EN 1650. Formulation B and Formulation D (a peracetic acid-based formulation) were tested separately and in combination. Formulation B was also tested in combination with hydrogen peroxide. Tests were run at 20°, 40° C. and 60° C. in the presence of 1% ferment soil at contact times of 10, 20 and 30 minutes. Kill rates are expressed as log reductions.

[3] = tested on: fermentative wild yeasts; test: Efficiency against fermentative wild yeasts; format: cell-based; conditions: all temperatures, 20 minutes or longer
Experimental: as §1
At 20° C. and 40° C., 0.28% peroxide […] was ineffective on Lactobacilli. The higher kill rate at 60° C. is mainly due to temperature.

[4] = tested on: Saccharomyces cerevisiae; test: Yeast growth test (Example 6); format: cell-based; conditions: supplement at concentrations above 10 ppm; 30° C.; compared to control without supplements
Experimental: These experiments were used to investigate whether potential residues of cleaning formulations described herein have any impact on the growth or metabolism of a fermentative yeast cell. Saccharomyces cerevisiae was selected as a typical member of fermenting yeasts. Malt extract agar tubes with an angular surface were used to grow starter cultures. Two globules that were covered with Saccaromyces cerevisiae (from a freeze culture collection DSM 1333) were streaked onto an agar surface and incubated at 30° C. for 3 days. Yeast colonies were grown, transferred to liquid growth media and incubated for 15-20 hours at 30° C. A second transfer was conducted into fresh liquid medium. The grown medium was transferred into closed, sterile tubes and centrifuged for 20 minutes at 8000 G. The liquid was decanted and the pellets collected in 10 mL of sterile Ringer solution. A Thoma Hemocytometer was prepared. Cells of 4 squares across were counted. Counted numbers from 4 squares were averaged and cell concentrations were calculated. The concentration of cells in the original mixture=number of cells counted*10^6=cells/mL. Dilutions were made to reach final cell concentration of 1×10^6/mL in culture medium. […] Start extinction was measured at 578 nm with help of a spectrophotometer. […] Every 1 to 2 hours samples were taken and extinctions were measured. […] The difference ∂ of extinction to start was calculated. […]

## [O][Cl+][O-] [Chlorine dioxide, chlorine dioxide]
[1]; 10 ppm, 80° C., ferment soil
  stability: very unstable

## CC(=O)OO [Peracetic acid, peracetic acid]
[1]; in Formulation B and ferment soil, versus high alkaline solutions
  stability: better stability
[1]; in the presence of Formulation B, 80° C., ferment soil
  half life: > 30 min
[2]; 0.3% (450 ppm), all temperatures, 20 minutes or longer
  effectiveness: very effective
[3]; 0.15% (225 ppm PAA)
  effectiveness: very effective
[3]; 0.3% (450 ppm)
  effectiveness: very effective

## [Na+].[OH-] [Caustic Soda, sodium hydroxide]
[4]
  S. cerevisiae cell growth: significantly decreased or even inhibited

## OO [hydrogen peroxide]
[2]; 0.28% (1000 ppm), at 20° C. and 40° C.
  effectiveness: ineffective
[2]; 1.4% (5000 ppm), at 40° C. and 20 minute contact times
  effectiveness: became effective
